Experimental findings from a melting point compilation (Tetko et al.; mined from patent text by program, amines drawn as free bases though some values may be those of a salt) are described below.

On to `N#CSc1nccnc1Cl`, for which the melting point (as a rule, the temperature of the solid-liquid transition) was in the range of 70 to 71 °C.

In turn, `CN1C(=O)CC(=O)N(c2ccccc2)c2cc(Cl)ccc21` had a melting point of 166 to 168 °C.

`Cc1cc(-c2cc(N)ccc2F)cc(C)n1` registered a melting point of 142 to 145 °C.

In turn, `C=Cc1cccc2[nH]c(C(=O)O)cc(=O)c12` yielded a melting point of 265 to 266 °C.

Compound `O=C1N(c2cc(Cl)cc(Cl)c2)C(=O)C2(Cc3ccc(-c4ccc([N+](=O)[O-])cc4)cc3)CCCN12` (stereo not given) displayed a melting point of 72 to 73 °C.

In turn, `Cc1ncn(CCCOc2c(C)cc(-c3nnn(C)n3)cc2C)n1` returned a melting point of 101 to 103 °C.

Consider `CCNC(=O)/C=C(C)/C=C/C(F)=C(C)/C=C/c1c(C)sc(C)c1C`, for which the melting point lay within 167 to 171 °C.

Regarding `CN(C)C=C(C#N)C(=O)Nc1ccc(F)cc1Cl`, the melting point was 138 to 139 °C.

In the case of `CCCc1c(SCCCOc2ccc(C(C)=O)c(OCCCC(=O)O)c2CCC)ccc(C(C)=O)c1O`, the melting point lay within 79 to 81 °C.

`O=C1N(c2ccc(Cl)cc2Cl)Cc2cnc(Nc3ccccc3)nc2N1c1cccc(CCO)c1` displayed a melting point of 213 to 217 °C.

In the case of `COc1cc(NS(=O)(=O)c2ccc(C)cc2)cc(OC)c1`, the melting point lay within 103 to 104 °C.

On to `CC1(C)CC(=NO)c2cc(F)ccc2O1`, for which the melting point was in the range of 108 to 110 °C.

`Cc1ccc(C2COc3cc(O)ccc3C2c2ccc(OCCN3CCCC3)cc2)cc1` (stereo not given) gave a melting point of 161 to 165 °C.

As to `NC(=O)n1nc(-c2ccco2)cc1N`, the melting point stood at 145 °C.

`CCCCc1nc(C(C)O)c(C(=O)O)n1Cc1ccc(-c2ccccc2C(=O)O)cc1` (stereo not given) returned a melting point of 168 to 170 °C.

Compound `Cc1c(C#N)ncn1-c1cccc(Oc2ccccc2)c1` gave a melting point of 97 to 98 °C.

As to `CCOC(=O)C(=O)c1ccc(OCCCCCCCCCCCCOc2ccccc2)cc1`, the melting point was 58 to 59 °C.

Compound `O=C(O)CC(NC(=O)C(Cl)Cl)C(=O)O` (stereo not given) registered a melting point of 165 to 168 °C.

As for `COc1cc(C(=O)O)ccc1OCCCO`, the melting point was found to be 162 °C.

In the case of `CC(C)[Si](OC[C@H]1C(C=O)=Cc2cc3c(cc2[C@@H]1O)OCO3)(C(C)C)C(C)C`, the melting point lay within 87 to 89 °C.

In turn, `CC1CCN(CC(=O)N2c3ccccc3N(C)S(=O)(=O)c3ccccc32)CC1` showed a melting point of 159 to 160 °C.

On to `CC(C)(CO)NC(=O)c1nn(-c2ccc(Br)cc2)c2c1C1CCC2C1` (stereo not given), for which the melting point lay within 184 to 186 °C.

`COc1cc(C(=O)O)ccc1-c1nc2cc(Cl)c(Cl)cc2[nH]1` gave a melting point of more than 250 °C.

With `CC(=O)C1CCC2C3CCC4C=CCCC4(C)C3CCC12C` (stereo not given), the melting point lay in the range of 135 to 136 °C.

`CCOC(=O)Cc1ccc(-c2nc(COc3ccc(COc4nn(-c5ccccc5)cc4/C=C/c4nc(N5CCCCC5)sc4C)cc3OC)c(C)o2)cc1`: the melting point fell in the range of 131 to 132 °C.

In the case of `CCC(NC(=O)COc1c(C)cccc1C)C(N)=O` (stereo not given), the melting point was 182 to 184 °C.

As for `CCOC(=O)C1=C(C)NC(c2csc(C)n2)=NC1c1cccc(O)c1` (stereo not given), the melting point is 175 to 178 °C.

The compound `CCOC(=O)c1c(N2CCN(c3ccccc3)CC2)c2ccc(C)nc2n(CC)c1=O` had a melting point of 110 to 112 °C.

Consider `Cc1cc(-c2nc3cccnn3c2-c2ccnc(NC(=O)C3CC3)c2)ccc1F`, for which the melting point lay in the range of 217 to 218 °C.

`COc1cc(C(=O)NS(=O)(=O)Cc2ccccc2C(F)(F)F)nc(C)n1`: the melting point lay within 120 to 122 °C.

For the compound `O=C(c1ccc(F)cc1)C1CCN(CCn2c(-c3ccccc3)nc3ccccc3c2=O)CC1`, the melting point was determined as 144 °C.

`CCCCCCCCCCCOCc1ccc(C(=O)O)cc1OCCCCCCCCCCC` registered a melting point of 61 to 63 °C.

In turn, `CCOC(=O)c1ccccc1Nc1ccccc1O` displayed a melting point of 105 to 106 °C.

As for `Cc1ccc(CC(=O)O)s1`, the melting point is 54 °C.

`O=C(N[C@H](Cc1ccc(F)cc1)C(=O)N1CCC(O)CC1)c1cc2ccccc2[nH]1` had a melting point of 204 to 207 °C.

In turn, `CC(=O)CCN1CCC(Nc2nc3ccccc3n2Cc2ccc(F)cc2)CC1` returned a melting point of 131 °C.

With `Cc1ccc(OC2CCN(C(=O)CNc3ccc4[nH]c(=O)sc4c3)CC2)cc1`, the melting point fell in the range of 189 to 191 °C.

For the compound `CS(=O)(=O)c1ccc(-c2cnn(-c3ccc(F)cc3)c(=O)c2COc2ccc(F)cc2)cc1`, the melting point fell in the range of 65 to 80 °C.

Compound `CCCCCN(CCCCC)C(=O)C(CCC(=O)O)CS(=O)(=O)c1ccc(Cl)c(Cl)c1` (stereo not given) had a melting point of 76 to 79 °C.

Compound `COc1ccc(C=C(NC(=O)c2ccccc2)C(=O)O)cc1OC` gave a melting point of 196 to 198 °C.

Take `ClCc1coc(-c2cc3ccccc3o2)n1`: the melting point lay in the range of 133 to 134 °C.

Compound `COC(=O)C1=Cc2cc(Br)cnc2N(CC(C)C)CCC1` showed a melting point of 79.5 to 80.5 °C.

As to `N#CCNSc1ccc(Cl)cc1`, the melting point was in the range of 74 to 76 °C.

`CNC1CCCN(c2c(F)cc3c(=O)c(C(=O)O)cn(C4CC4)c3c2OC)C1` (stereo not given): the melting point was 134 to 135 °C.

`CS(=O)(=O)N1CCC(C(=O)Nc2ccccc2Oc2ccc(Cl)cc2Cl)CC1` displayed a melting point of 150 to 151 °C.

With `Cc1cc(-n2cncn2)c2cc(Cl)cc(Cl)c2n1`, the melting point is 220 to 222 °C.

On to `CC(=O)Oc1cc(OC(C)=O)c2c(c1)Oc1ccccc1C2C#N` (stereo not given), for which the melting point was in the range of 160 to 161 °C.

In turn, `COc1ccc(C(=O)Nc2ccc(C)cc2)cc1NC(=S)Nc1cc(Cl)cc(Cl)c1` had a melting point of 178 to 180 °C.

For `CCCCCCCCCCCCCCCCCCOc1cc(OCCOc2ccc3ccccc3c2)cc(C(=O)OCc2ccccc2)c1`, the melting point fell in the range of 62 to 65 °C.

`O=C(O)C(=O)CC(=O)c1cccn1Cc1cc(F)ccc1F` showed a melting point of 142 to 146 °C.

Compound `CN1C(=O)CC[C@]2(C)c3ccc(-c4c(F)c(F)c(F)c(F)c4F)cc3CC[C@@H]12` had a melting point of 92 to 100 °C.

`COc1ccc(OC)c(CCc2ccc3ncn(C)c(=O)c3c2)c1` returned a melting point of 83 to 85 °C.

The compound `COc1cc(NC(=O)c2cc(Br)ccc2O)cc(OC)c1` came in with a melting point of 207 to 209 °C.

As to `CCOC(=O)C(C#N)=CC1C=C(OC)C(C(=O)OC)=C(OC)C1` (stereo not given), the melting point lay in the range of 119 to 121 °C.

`CC1Oc2cc(C3=NNC(=O)CC3)ccc2NC1=O` (stereo not given) came in with a melting point of 294 to 295 °C.

Consider `Cc1[nH]c(C)c(-c2ccc(Oc3ccc(OC(F)(F)F)cc3)cc2)c(=O)c1Cl`, for which the melting point fell in the range of 298 to 302 °C.

Regarding `Cc1ccccc1-c1ccc2c(c1)c(C(=O)C(=O)O)cn2Cc1ccc(C(C)(C)C)cc1`, the melting point was in the range of 97 to 98 °C.

Regarding `c1ccc(COc2ccc(CCOc3ccc(CCNc4ncnc5nccnc45)cc3)cc2)cc1`, the melting point is 120 to 122 °C.

In turn, `O=C(Nc1ccc(OC(F)(F)F)cc1)NC1CCN(C(=O)C(F)(F)F)CC1` had a melting point of 150 to 154 °C.

`Cc1cc(C(C)(C)C)c(O)c(C)c1COC(=O)CCCCC(=O)OCc1c(C)cc(C(C)(C)C)c(O)c1C` showed a melting point of 156 to 158 °C.

Take `Cc1ccc(-c2ccc(-c3nnn[nH]3)cc2)cc1C`: the melting point lay within 192 to 194 °C.

In turn, `c1ccc(SCC2=NCCN2)cc1` came in with a melting point of 84 to 85.6 °C.

In the case of `Cc1cc([N+](=O)[O-])ccc1-c1ccc(-c2ccc([N+](=O)[O-])cc2C)o1`, the melting point was 242 to 243 °C.

The compound `CCc1nnc2c(N(CC)CC)nc3ccc(OC)cc3n12` gave a melting point of 135 to 138 °C.

Turning to `COc1cc2c(cc1OC)-c1[nH]c3ccc(O)cc3c1C2=O`, the melting point is more than 260 °C.

On to `C[C@@H]1CCN(C(=O)OC(C)(C)C)C[C@@H]1N(C)C(=O)OC(C)(C)C`, for which the melting point was 118 °C.

Take `COc1cc2ccccc2cc1NC(=O)Nc1cccc2ccccc12`: the melting point was 155 to 156 °C.

For the compound `c1ccc(CCCC2CCN(Cc3nc4ccccc4[nH]3)CC2)cc1`, the melting point lay in the range of 140 to 141 °C.

For the compound `c1ccc(Oc2ccc3nnn(Cc4ccc5ncccc5c4)c3n2)cc1`, the melting point is 225 to 227 °C.

Take `O=C(O)C=Nc1cccc(F)c1C(=O)O`: the melting point is 169 °C.

As to `O=C(O)CCC(C(=O)O)N1C(=O)c2ccccc2C1=S` (stereo not given), the melting point is 157 °C.

`CN1CCC(O)(c2cccn2C)CC1` had a melting point of 123 to 124 °C.

With `CC(C)(O)c1cnn2c(-c3ccc(F)c(-c4ccc(F)cc4C#N)c3)cnc2n1`, the melting point is 215 °C.

`COc1cc(C(=O)c2ccnc3ccccc23)ccc1O` had a melting point of 190 to 192 °C.

Compound `COc1ccc(C2CNC(=O)NC2)cc1OC(F)F` had a melting point of 215 to 216 °C.

For the compound `COc1ccc(C(=O)C2=C(O)C(=O)N(c3nnc(C)s3)C2c2ccc(C#N)cc2)cc1` (stereo not given), the melting point worked out at 185 °C.

In the case of `CCCN1C(=O)c2ccccc2C1(O)c1ccc(F)cc1` (stereo not given), the melting point lay in the range of 172 to 175 °C.

Turning to `COc1ccc(CC(CS)C(=O)Nc2cccc(C(=O)O)c2)cc1` (stereo not given), the melting point was 184 to 185 °C.

The compound `CCCc1cccc(-c2nc(C)cc(Cl)n2)n1` gave a melting point of 77.1 °C.

Compound `OCCCCCCCCCCCN1CCCCC1` displayed a melting point of 62 to 65 °C.

`CCc1cc2c(s1)-n1c(C)nnc1C(N)N=C2c1ccccc1Cl` (stereo not given) came in with a melting point of 130 to 131 °C.

For the compound `CN(C)C(=O)COC(=O)c1ccc(Cl)cc1OCC(=O)N(C)C`, the melting point lay within 140 to 141 °C.

For `O=C1c2ccccc2C(=O)N1CC(=C(F)F)c1ccccc1`, the melting point lay within 102 to 103 °C.

As to `c1cc2ncc3c(n2n1)N(C1CCCC1)CC3`, the melting point came to 181 °C.

`CC(C)(C)OC(=O)[C@@H]1CCCN1C(=O)CCC(=O)c1ccc(Br)cc1`: the melting point lay within 70 to 71 °C.

`CC(C)(C#N)CN1C(=O)C2(OCCCO2)c2cc(Cl)ccc21`: the melting point is 114 to 116 °C.

The compound `O=C(Nc1ccccc1)c1cnc2c(C(F)(F)F)cccc2c1-c1ccccc1` came in with a melting point of 207 to 208 °C.

Turning to `Cc1ccc(N2C(=O)N(CC(=O)Nc3c(C(C)C)cccc3C(C)C)C(=O)C23CCN(C(=O)OC(C)(C)C)CC3)cc1`, the melting point is 227 to 229 °C.

As for `CC(C)N1C(=O)NC(c2ccc3ocnc3c2)c2cc3c(cc21)OCO3` (stereo not given), the melting point was 84 to 86 °C.

Turning to `CC1(c2ccc(Br)cc2)Cc2cc(OCC(=O)O)c(Cl)c(Cl)c2C1=O` (stereo not given), the melting point fell in the range of 171 to 172 °C.
